According to patent US4283494A, “Microbial lipase, process for its preparation and microbiologically pure culture therefor” (Meito Sangyo Kabushiki Kaisha, priority 1978, dated 1981):
Where two headings read alike, the source gives them in different places.

Key:
[1] = test system: microbial lipase of the invention, Alcaligenes sp. PL-679 Meito (FERM-P No. 3783, ATCC 31371); details: 10 min
[2] = test system: Lipase II of Japanese Laid-Open Patent Publication No. 21387/77, Alcaligenes sp. PL-266 Meito; details: cited from earlier work
[3] = test system: Lipase I of Japanese Laid-Open Patent Publication No. 21387/77, Alcaligenes sp. PL-266 Meito; details: cited from earlier work
[4] = test system: microbial lipase of the invention, Alcaligenes sp. PL-679 Meito (FERM-P No. 3783, ATCC 31371); assay: Lipase activity inhibition by inhibiting reagents (contact at 37° C. for 10 minutes, then olive oil emulsion assay); assay type: biochemical; details: inhibiting reagent 10^-2 mole, lipase about 3 U/ml
Description: An aqueous solution of the lipase sample (about 3 units/ml) is contacted with each of the inhibiting agents at 37° C. for 10 minutes, and the lipase activity is measured.
The lipase in a concentration of about 3 U/ml is contacted with various inhibiting reagents at 37° C. for 10 minutes, and then the lipase activity is measured.
Glycine buffer (1 mole, pH 8.7): 2.0 ml
Olive oil emulsion: 2.5 ml
The olive oil emulsion is prepared by adding 20 g of olive oil to 180 ml of a 10% aqueous solution of gum arabic, homogenizing the mixture at 11,000 r.p.m. for 15 minutes while it is cooled to 5°-10° C., and adjusting the pH of the homogenized mixture to 8.7.
The reaction mixture is placed in a 25 ml glass stopper tube, and reacted exactly for 10 minutes at 37° C. Then, the reaction is stopped by adding 1 ml of 2 N sulfuric acid, and 15 ml of a mixture of n-heptane and isopropanol in a ratio of 11:4 is added. The mixture is vigorously shaken for 30 seconds, and allowed to stand for more than 30 minutes. […] The mixture is treated in the same way as above, and the resulting product is titrated with a potassium hydroxide solution, and the measured value obtained is substracted from the measured value obtained above. The amount of fatty acid liberated is calculated from the resulting titration value with reference to the standard line prepared by using a known amount of palmitic acid. […]

[5] = concentration of bile salt 0.2%
[6] = concentration of bile salt 0.4%
[7] = concentration of bile salt 0.6%
[8] = concentration of bile salt 0.8%

Compound	Lipase activity, percentage based on the lipase activity in the absence of a bile salt [1, 5] [%]	Lipase activity, percentage based on the lipase activity in the absence of a bile salt [1, 6] [%]	Lipase activity, percentage based on the lipase activity in the absence of a bile salt [1, 7] [%]	Lipase activity, percentage based on the lipase activity in the absence of a bile salt [1, 8] [%]	also measured
C[C@H](CCC(=O)O)[C@H]1CC[C@H]2[C@@H]3[C@H](O)C[C@@H]4C[C@H](O)CC[C@]4(C)[C@H]3C[C@H](O)[C@]12C [Cholate]	197	221	211	229	–
C[C@H](CCC(=O)NCC(=O)O)[C@H]1CC[C@H]2[C@@H]3[C@H](O)C[C@@H]4C[C@H](O)CC[C@]4(C)[C@H]3C[C@H](O)[C@]12C [Glycocholate]	218	221	232	224	–
O=C(O)CI [monoiodoacetic acid]	–	–	–	–	Activity inhibition by monoiodoacetic acid ([2]; concentration 10^-3 mole): Not inhibited; Activity inhibition by monoiodoacetic acid ([3]; concentration 10^-3 mole): Not inhibited
II [iodine]	–	–	–	–	Activity inhibition of the lipase [4]: about 95%
O=C1O[C@H]([C@@H](O)CO)C([O-])=C1O.[Na+] [sodium ascorbate]	–	–	–	–	Activity inhibition by sodium ascorbate ([2]; concentration 10^-2 mole): Not inhibited; Activity inhibition by sodium ascorbate ([3]; concentration 10^-2 mole): Not inhibited
C[C@H](CCC(=O)O)[C@H]1CC[C@H]2[C@@H]3CC[C@@H]4C[C@H](O)CC[C@]4(C)[C@H]3C[C@H](O)[C@]12C [Desoxycholate]	289	300	305	303	–
CCOC(=O)OC(=O)OCC [ethoxyformic anhydride]	–	–	–	–	Activity inhibition of the lipase [4]: about 70%
